According to US9527867B2, “Antibacterial biaromatic derivatives” (Actelion Pharmaceuticals Ltd., priority 2013, dated 2016):
≈ marks a conversion by molar mass, not a printed value.

What was measured:
Test in all cases: Bacterial growth minimal inhibitory concentration (broth microdilution, CLSI M7-A7)
Type in all cases: cell-based
[1] = tested on: Moraxella catarrhalis A894; settings: Moraxella catarrhalis, A894, cation-adjusted Mueller-Hinton Broth, quinolone-sensitive strain
In short: (§1)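 Cation-adjusted MH broth, microdilution, CLSI M7-A7; MIC in mg/L. Strains: S. aureus A798 and A. baumannii T6474 multiresistant (quinolone-R); S. aureus ATCC29213 MSSA, quinolone-S; M. catarrhalis A894 quinolone-S.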

[2] = tested on: Staphylococcus aureus A798; settings: Staphylococcus aureus, A798, cation-adjusted Mueller-Hinton Broth, multiply-resistant strain (in particular quinolone-resistant), read-out: MIC for S. aureus A798
In short: as §1

[3] = tested on: Enterococcus faecium A949; settings: Enterococcus faecium, A949, cation-adjusted Mueller-Hinton Broth, multiply-resistant strain (in particular quinolone-resistant), read-out: MIC for E. faecium A949
In short: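 Broth microdilution after CLSI M7-A7 in cation-adjusted Mueller-Hinton medium gave MIC values in mg/L.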

[4] = tested on: Acinetobacter baumannii T6474; settings: Acinetobacter baumannii, T6474, cation-adjusted Mueller-Hinton Broth, multiply-resistant strain (in particular quinolone-resistant)
In short: as §1

[5] = tested on: Staphylococcus aureus ATCC29213; settings: Staphylococcus aureus, ATCC29213, cation-adjusted Mueller-Hinton Broth, methicillin-sensitive and quinolone-sensitive strain, read-out: MIC for S. aureus ATCC29213
In short: as §1

| MIC [1] | MIC [2] | MIC [3] | MIC [4] | MIC [5] | SMILES |
| --- | --- | --- | --- | --- | --- |
| ≤ 0.016 µg/mL | 0.031 µg/mL (≈ 0.0629 µM) | 2 µg/mL (≈ 4.06 µM) | 0.125 µg/mL (≈ 0.254 µM) | 0.031 µg/mL (≈ 0.0629 µM) | COc1cnnc(-c2cccc(CNCC[C@H]3CN(c4ccc5c(n4)NC(=O)CS5)C(=O)O3)c2)c1 [Example 99, 6-((S)-5-{2-[3-(5-methoxy-pyridazin-3-yl)-benzylamino]-ethyl}-2-oxo-oxazolidin-3-yl)-4H-pyrido[3,2-b][1,4]thiazin-3-one] |
| 0.25 µg/mL (≈ 0.498 µM) | 4 µg/mL (≈ 7.97 µM) | > 8 µg/mL | 8 µg/mL (≈ 15.9 µM) | 4 µg/mL (≈ 7.97 µM) | N#Cc1cc(O)nc(-c2cccc(CNCC[C@@H]3CN(c4ccc5c(c4)NC(=O)CS5)C(=O)O3)c2)c1 [Example 47, 2-hydroxy-6-[3-({2-[(R)-2-oxo-3-(3-oxo-3,4-dihydro-2H-benzo[1,4]thiazin-6-yl)-oxazolidin-5-yl]-ethylamino}-methyl)-phenyl]-isonicotinonitrile] |
| 0.063 µg/mL (≈ 0.128 µM) | 1 µg/mL (≈ 2.04 µM) | 4 µg/mL (≈ 8.15 µM) | 1 µg/mL (≈ 2.04 µM) | 0.5 µg/mL (≈ 1.02 µM) | COc1cccc(-c2cncc(CNCC[C@@H]3CN(c4ccc5c(c4)NC(=O)CS5)C(=O)O3)c2)c1 [Example 72, 6-[(R)-5-(2-{[5-(3-methoxy-phenyl)-pyridin-3-ylmethyl]-amino}-ethyl)-2-oxo-oxazolidin-3-yl]-4H-benzo[1,4]thiazin-3-one] |
| ≤ 0.063 µg/mL | 0.5 µg/mL (≈ 1 µM) | 8 µg/mL (≈ 16 µM) | 1 µg/mL (≈ 2 µM) | 0.5 µg/mL (≈ 1 µM) | COc1cc(-c2cccc(CNCC[C@H]3CN(c4ccc5c(n4)NC(=O)CO5)C(=O)O3)c2)ccc1C#N [Example 75, 3-methoxy-3′-({2-[(S)-2-oxo-3-(3-oxo-3,4-dihydro-2H-pyrido[3,2-b][1,4]oxazin-6-yl)-oxazolidin-5-yl]-ethylamino}-methyl)-biphenyl-4-carbonitrile] |
| 0.031 µg/mL (≈ 0.0629 µM) | 0.125 µg/mL (≈ 0.254 µM) | 4 µg/mL (≈ 8.12 µM) | 0.25 µg/mL (≈ 0.508 µM) | 0.25 µg/mL (≈ 0.508 µM) | COc1cnnc(-c2cccc(CNCC[C@@H]3CN(c4ccc5c(n4)NC(=O)CS5)C(=O)O3)c2)c1 [Example 98, 6-((R)-5-{2-[3-(5-methoxy-pyridazin-3-yl)-benzylamino]-ethyl}-2-oxo-oxazolidin-3-yl)-4H-pyrido[3,2-b][1,4]thiazin-3-one] |
| 0.125 µg/mL (≈ 0.241 µM) | 1 µg/mL (≈ 1.93 µM) | 16 µg/mL (≈ 30.9 µM) | 4 µg/mL (≈ 7.71 µM) | 2 µg/mL (≈ 3.86 µM) | O=C1COc2ccc(N3C[C@H](CCNCc4cccc(-c5cccc(OCCCO)c5)c4)OC3=O)nc2N1 [Example 53, 6-[(S)-5-(2-{[3′-(3-hydroxy-propoxy)-biphenyl-3-ylmethyl]-amino}-ethyl)-2-oxo-oxazolidin-3-yl]-4H-pyrido[3,2-b][1,4]oxazin-3-one] |
| ≤ 0.016 µg/mL | 0.063 µg/mL (≈ 0.13 µM) | 1 µg/mL (≈ 2.06 µM) | 0.125 µg/mL (≈ 0.258 µM) | 0.063 µg/mL (≈ 0.13 µM) | N#Cc1cccc(-c2cccc(CNCC[C@@H]3CN(c4ccc5c(c4)NC(=O)CS5)C(=O)O3)c2)c1 [Example 5, 3′-({2-[(R)-2-oxo-3-(3-oxo-3,4-dihydro-2H-benzo[1,4]thiazin-6-yl)-oxazolidin-5-yl]-ethylamino}-methyl)-biphenyl-3-carbonitrile] |
| ≤ 0.016 µg/mL | 0.063 µg/mL (≈ 0.135 µM) | 0.5 µg/mL (≈ 1.07 µM) | 0.063 µg/mL (≈ 0.135 µM) | 0.063 µg/mL (≈ 0.135 µM) | N#Cc1cccc(-c2cccc(CNCCc3cn(-c4ccc5c(n4)NC(=O)CO5)c(=O)o3)c2)c1 [Example 36, 3′-({2-[2-oxo-3-(3-oxo-3,4-dihydro-2H-pyrido[3,2-b][1,4]oxazin-6-yl)-2,3-dihydro-oxazol-5-yl]-ethylamino}-methyl)-biphenyl-3-carbonitrile] |
| 0.031 µg/mL (≈ 0.0631 µM) | 0.125 µg/mL (≈ 0.254 µM) | 4 µg/mL (≈ 8.14 µM) | 0.25 µg/mL (≈ 0.509 µM) | 0.125 µg/mL (≈ 0.254 µM) | COc1cnnc(-c2cccc(CNCC[C@@H]3CN(c4ccc5c(c4)NC(=O)CS5)C(=O)O3)c2)c1 [Example 30, 6-((R)-5-{2-[3-(5-methoxy-pyridazin-3-yl)-benzylamino]-ethyl}-2-oxo-oxazolidin-3-yl)-4H-benzo[1,4]thiazin-3-one] |
| ≤ 0.016 µg/mL | 0.063 µg/mL (≈ 0.133 µM) | 2 µg/mL (≈ 4.22 µM) | 0.063 µg/mL (≈ 0.133 µM) | 0.063 µg/mL (≈ 0.133 µM) | COc1cnnc(-c2cccc(CNCCc3cn(-c4ccc5c(n4)NC(=O)CO5)c(=O)o3)c2)c1 [Example 83, 6-(5-{2-[3-(5-methoxy-pyridazin-3-yl)-benzylamino]-ethyl}-2-oxo-oxazol-3-yl)-4H-pyrido[3,2-b][1,4]oxazin-3-one] |
| ≤ 0.063 µg/mL | 0.25 µg/mL (≈ 0.497 µM) | 4 µg/mL (≈ 7.96 µM) | 2 µg/mL (≈ 3.98 µM) | 0.5 µg/mL (≈ 0.995 µM) | COC(=O)c1cccc(-c2cccc(CNCC[C@H]3CN(c4ccc5c(n4)NC(=O)CO5)C(=O)O3)c2)c1 [Example 77, 3′-({2-[(S)-2-oxo-3-(3-oxo-3,4-dihydro-2H-pyrido[3,2-b][1,4]oxazin-6-yl)-oxazolidin-5-yl]-ethylamino}-methyl)-biphenyl-3-carboxylic acid methyl ester] |
| 0.063 µg/mL (≈ 0.132 µM) | 1 µg/mL (≈ 2.1 µM) | > 8 µg/mL | 1 µg/mL (≈ 2.1 µM) | 0.5 µg/mL (≈ 1.05 µM) | COc1cnnc(-c2cccc(CNCC[C@H]3CN(c4ccc5c(c4)NC(=O)CO5)C(=O)O3)c2)c1 [Example 81, 6-((S)-5-{2-[3-(5-methoxy-pyridazin-3-yl)-benzylamino]-ethyl}-2-oxo-oxazolidin-3-yl)-4H-benzo[1,4]oxazin-3-one] |
| 0.125 µg/mL (≈ 0.248 µM) | 4 µg/mL (≈ 7.93 µM) | 16 µg/mL (≈ 31.7 µM) | 16 µg/mL (≈ 31.7 µM) | 4 µg/mL (≈ 7.93 µM) | COc1ccc(-c2cccc(CNCC[C@H]3CN(c4ccc5c(n4)NC(=O)CO5)C(=O)O3)c2)cc1OC [Example 48, 6-((S)-5-{2-[(3′,4′-dimethoxy-biphenyl-3-ylmethyl)-amino]-ethyl}-2-oxo-oxazolidin-3-yl)-4H-pyrido[3,2-b][1,4]oxazin-3-one] |
